{"source": "patent US20230104692A1", "about": "“DMEU ENHANCER” (priority 2020, published 2023)", "key": {"[1]": {"conditions": "in words; cited from earlier work"}, "[2]": {"assay": "loading concentration of saturated active ingredient solution in penetration accelerator", "assay_type": "physicochemical", "conditions": "for loading concentration in dimethyl isosorbide: dimethyl isosorbide as penetration accelerator; for loading concentration of saturated solution in DMEU: donor volume 150 μl", "procedure": "The following test series with the various penetration accelerators and for the selected active ingredients were carried out in the context of a typical in vitro permeation using Franz diffusion cells. The used acceptor medium was replaced completely for a new one at predetermined replacement times, and the content of permeated active ingredient amount in these acceptor solutions was determined by means of HPLC."}}, "data": [{"compound": "CCOC(=O)C1=C(C)NC(C)=C(C(=O)OC)C1c1cccc(Cl)c1Cl", "note": "(stereo not drawn) [Felodipine]", "values": [{"measurement": "water solubility", "setting": "[1]", "result": "almost insoluble in water"}]}, {"compound": "CC(=O)[C@H]1CC[C@H]2[C@@H]3CCC4=CC(=O)CC[C@]4(C)[C@H]3CC[C@]12C", "note": "[Progesterone]", "values": [{"measurement": "water solubility", "setting": "[1]", "result": "almost insoluble in water"}, {"measurement": "loading concentration in dimethyl isosorbide", "setting": "[2]", "result": 6.4, "unit": "mg/cm^2"}, {"measurement": "loading concentration in dipropylene glycol", "setting": "[2]; dipropylene glycol as penetration accelerator", "result": 2.1, "unit": "mg/cm^2"}, {"measurement": "loading concentration of saturated solution in DMEU", "setting": "[2]", "result": 27.7, "unit": "mg/cm^2"}]}, {"compound": "Cc1cc2c(s1)Nc1ccccc1N=C2N1CCN(C)CC1", "note": "[Olanzapine]", "values": [{"measurement": "water solubility", "setting": "[1]", "result": "almost insoluble in water"}]}, {"compound": "COc1cc(/C=C/C(=O)CC(=O)/C=C/c2ccc(O)c(OC)c2)ccc1O", "note": "[Curcumin]", "values": [{"measurement": "water solubility", "setting": "[1]", "result": "almost insoluble in water"}, {"measurement": "loading concentration in dimethyl isosorbide", "setting": "[2]", "result": 1.29, "unit": "mg/cm^2"}, {"measurement": "loading concentration of saturated solution in DMEU", "setting": "[2]", "result": 12.75, "unit": "mg/cm^2"}]}]}
